As usually defined, the Ki is a dissociation constant, usually derived from enzyme kinetics or from competition with a known ligand. In general, IC50 refers to the concentration at which inhibition is half-maximal.

The results in this text go back to patent US7901893B2, “NPC1L1 (NPC3) and methods of identifying ligands thereof” (Merck Sharp & Dohme Corp., priority 2004, dated 2011).

Structures are written as SMILES.

The target of experiment [1] is T1, rat brush border membrane vesicles (Rattus norvegicus, UniProt Q6T3U3).
T1 construct: from tissue; host or cells: rat (male Sprague-Dawley) small-intestinal mucosa, brush border membrane vesicles
As to the kind of experiment: Binding assay with rat brush border membrane vesicles. The source says: Glass fiber filters (GF/C) were obtained from Whatman.
Rate constants for binding and dissociation.
(§1) Analog structures are defined in Table 12.

The target of a further experiment is rat NPC1L1 (Rattus norvegicus, UniProt Q6T3U3). In words: Binding to membranes of HEK-293 cells expressing recombinant rat NPC1L1. Details: expressed in transfected cells; host or cells: HEK-293 cells (ATCC), transient, pCR3.1; membranes. Particulars: 0.03% sodium taurocholate and 0.05% digitonin; 1.25 mg protein/ml, 100 nM 1. As for the experimental part: (§2) Transient expression of NPC1L1. Plasmid pCR3.1 expressing rat NPC1L1 (Genbank AY437867) or human NPC1L1 (Genbank AY437865) were prepared using standard molecular biology protocols. HEK-293 cells (ATCC) were seeded at 10×10^6 cells per T-225 flask (Corning) in DMEM containing 10% fetal calf serum, 4.5 g/L D-glucose and L-glutamine, 18 hours prior to transfection. They were transiently transfected with 25 μg of DNA using Fugene transfection reagent (Roche Biochemical) at a ratio of 6:1 Fugene:DNA. Following transfection, the cells were incubated at 37° C. and 5% CO2 for 48 hours, and then harvested using PBS based cell dissociation buffer (Gibco), pelleted at 500×g, snap frozen on dry ice, and stored at −80° C.
(§3) Membrane preparation from HEK-293 cells. Membranes were prepared by resuspending the frozen cell pellets in ten volumes of 20 mM HEPES/Tris buffer at pH 7.40 containing 8% sucrose, and sonicating the suspensions with a probe sonicator on ice until most of the cells were lysed. To isolate the membranes, the sonicates were centrifuged at 1600×g for 10 min to remove cell debris, and then the supernatants were centrifuged at 125,000×g for 1 hour to recover the membranes. These membranes were resuspended in 20 mM HEPES/Tris buffer at pH 7.40 containing 160 mM NaCl and 5% glycerol, and stored at 10-20 mg/ml protein at −80° C.
as §1

Experiment [2] has as its target T2, rhesus brush border membrane vesicles (Macaca mulatta, UniProt A0MJA5).
T2 sequence (A0MJA5 1-1332): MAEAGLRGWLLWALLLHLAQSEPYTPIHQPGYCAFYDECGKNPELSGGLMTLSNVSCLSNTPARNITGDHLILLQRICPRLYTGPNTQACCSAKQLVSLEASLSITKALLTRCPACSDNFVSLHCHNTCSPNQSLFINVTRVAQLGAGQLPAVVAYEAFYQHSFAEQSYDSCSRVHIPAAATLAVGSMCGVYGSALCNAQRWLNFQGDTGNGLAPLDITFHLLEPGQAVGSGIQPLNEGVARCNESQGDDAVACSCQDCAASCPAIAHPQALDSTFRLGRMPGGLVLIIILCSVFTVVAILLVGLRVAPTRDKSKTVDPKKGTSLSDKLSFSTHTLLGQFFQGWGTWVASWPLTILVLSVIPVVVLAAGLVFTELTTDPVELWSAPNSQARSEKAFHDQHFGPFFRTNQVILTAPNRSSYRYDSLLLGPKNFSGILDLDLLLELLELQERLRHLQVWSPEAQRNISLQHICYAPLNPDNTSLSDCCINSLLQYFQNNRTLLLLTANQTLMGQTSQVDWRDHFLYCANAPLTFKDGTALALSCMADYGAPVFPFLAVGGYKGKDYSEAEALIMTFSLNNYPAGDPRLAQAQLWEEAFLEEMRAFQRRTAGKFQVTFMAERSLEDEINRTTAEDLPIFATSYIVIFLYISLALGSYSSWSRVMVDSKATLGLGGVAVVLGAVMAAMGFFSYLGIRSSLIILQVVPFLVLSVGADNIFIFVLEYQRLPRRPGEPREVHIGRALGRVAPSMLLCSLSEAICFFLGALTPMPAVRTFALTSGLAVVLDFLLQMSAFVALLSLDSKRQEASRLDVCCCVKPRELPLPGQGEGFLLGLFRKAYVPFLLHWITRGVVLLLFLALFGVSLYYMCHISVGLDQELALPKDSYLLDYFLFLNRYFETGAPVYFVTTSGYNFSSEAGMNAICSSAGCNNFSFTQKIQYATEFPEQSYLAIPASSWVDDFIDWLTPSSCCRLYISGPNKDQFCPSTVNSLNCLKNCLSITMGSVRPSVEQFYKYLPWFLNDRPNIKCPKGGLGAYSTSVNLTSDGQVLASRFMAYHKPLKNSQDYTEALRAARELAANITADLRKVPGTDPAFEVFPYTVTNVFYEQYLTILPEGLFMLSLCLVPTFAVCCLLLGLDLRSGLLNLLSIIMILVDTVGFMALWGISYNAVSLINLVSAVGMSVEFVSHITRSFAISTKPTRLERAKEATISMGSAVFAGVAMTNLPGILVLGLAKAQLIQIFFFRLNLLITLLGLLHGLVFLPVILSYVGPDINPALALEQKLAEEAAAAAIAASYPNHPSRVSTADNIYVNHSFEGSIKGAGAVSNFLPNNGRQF
As to the kind of experiment: Binding assay with rhesus brush border membrane vesicles.
Procedure: The intestines from freshly sacrificed animals were cut into segments, perfused with ice-cold saline buffer (Buffer A: 26 mM NaHCO3, 0.96 mM NaH2PO4, 5 mM HEPES, 5.5 mM glucose, 117 mM NaCl, 5.4 mM KCl, pH=7.4), placed on cold glass plates, opened longitudinally, and the mucosa scraped with glass microscope slips. This mucosa could be used fresh or frozen with identical results. To prepare the membranes, the mucosal scrapings were resuspended in 20 volumes of cold buffer consisting of 300 mM D-mannitol, 5 mM EGTA, 12 mM Tris, pH 7.4 with HCl, and containing 0.1 mM PMSF and a 1% dilution of a protease inhibitor cocktail (set 1, Calbiochem). They were homogenized using a Polytron at medium speed on ice until inspection with a microscope indicated complete cell lysis. Then, solid MgCl2 was added slowly with stirring to a final concentration of 10 mM, and the solution was kept stirring on ice for 15 min. Cellular debris was removed by centrifugation for 15 min at 3,000 g, and the membranes were recovered by centrifugation for 60 min at 48,000 g. The membranes were further rinsed by re-suspension in a buffer containing 50 mM D-mannitol, 5 mM EGTA, and 2 mM Tris at pH 7.40, and centrifugation for 60 min at 48,000 g. The final pellet was resuspended in 120 mM NaCl and 20 mM Tris at pH 7.40 to a concentration of ˜10-20 mg protein/ml, aliquoted, frozen in liquid nitrogen, and stored at −80 C. The activity was stable indefinitely and could be freeze-thawed with minimal loss of activity.
Binding assay. Assays were conducted in 12×75 mm glass test tubes and total volume 20-100 ul. In general, frozen membranes were diluted in buffer A or buffer A containing 0.03% taurocholate and 0.05% digitonin to a final concentration of 0.02 to 5 mg/ml. […] Competing ligands were likewise added as DMSO solutions to give a total 2-10% organic solvent content. […] At least 2 components of buffer A, the bicarbonate and phosphate salts, were later found to be inconsequential and were routinely omitted.
Bound ligand was quantified by single-tube vacuum filtration using GF/C glass fiber filters. […] Filtration was accomplished by adding 2.5 ml of ice cold buffer (120 mM NaCl, 0.1% sodium cholate, and 20 mM MES at pH 6.70) to the assay tube, pouring the mixture through the filter, and then rinsing the tube and filter twice more with another 2×2.5 ml buffer. The filters were counted in 7 ml vials using Packard DM liquid scintillation fluid.
Data analysis. Data from saturation experiments were subjected to a Scatchard analysis, and linear regression was performed to yield the equilibrium dissociation constant (Kd) and maximum receptor concentration (Bmax). […] Data from competition experiments were analyzed and IC50 values determined from Hill plots of the binding data.

In another experiment the target is T3, human NPC1L1 (Homo sapiens, UniProt Q9UHC9, G1187D/M616T/T1073A).
T3 sequence (Q9UHC9 22-1332 isoform Q9UHC9-2 M616T/T1046A/G1160D limits assumed): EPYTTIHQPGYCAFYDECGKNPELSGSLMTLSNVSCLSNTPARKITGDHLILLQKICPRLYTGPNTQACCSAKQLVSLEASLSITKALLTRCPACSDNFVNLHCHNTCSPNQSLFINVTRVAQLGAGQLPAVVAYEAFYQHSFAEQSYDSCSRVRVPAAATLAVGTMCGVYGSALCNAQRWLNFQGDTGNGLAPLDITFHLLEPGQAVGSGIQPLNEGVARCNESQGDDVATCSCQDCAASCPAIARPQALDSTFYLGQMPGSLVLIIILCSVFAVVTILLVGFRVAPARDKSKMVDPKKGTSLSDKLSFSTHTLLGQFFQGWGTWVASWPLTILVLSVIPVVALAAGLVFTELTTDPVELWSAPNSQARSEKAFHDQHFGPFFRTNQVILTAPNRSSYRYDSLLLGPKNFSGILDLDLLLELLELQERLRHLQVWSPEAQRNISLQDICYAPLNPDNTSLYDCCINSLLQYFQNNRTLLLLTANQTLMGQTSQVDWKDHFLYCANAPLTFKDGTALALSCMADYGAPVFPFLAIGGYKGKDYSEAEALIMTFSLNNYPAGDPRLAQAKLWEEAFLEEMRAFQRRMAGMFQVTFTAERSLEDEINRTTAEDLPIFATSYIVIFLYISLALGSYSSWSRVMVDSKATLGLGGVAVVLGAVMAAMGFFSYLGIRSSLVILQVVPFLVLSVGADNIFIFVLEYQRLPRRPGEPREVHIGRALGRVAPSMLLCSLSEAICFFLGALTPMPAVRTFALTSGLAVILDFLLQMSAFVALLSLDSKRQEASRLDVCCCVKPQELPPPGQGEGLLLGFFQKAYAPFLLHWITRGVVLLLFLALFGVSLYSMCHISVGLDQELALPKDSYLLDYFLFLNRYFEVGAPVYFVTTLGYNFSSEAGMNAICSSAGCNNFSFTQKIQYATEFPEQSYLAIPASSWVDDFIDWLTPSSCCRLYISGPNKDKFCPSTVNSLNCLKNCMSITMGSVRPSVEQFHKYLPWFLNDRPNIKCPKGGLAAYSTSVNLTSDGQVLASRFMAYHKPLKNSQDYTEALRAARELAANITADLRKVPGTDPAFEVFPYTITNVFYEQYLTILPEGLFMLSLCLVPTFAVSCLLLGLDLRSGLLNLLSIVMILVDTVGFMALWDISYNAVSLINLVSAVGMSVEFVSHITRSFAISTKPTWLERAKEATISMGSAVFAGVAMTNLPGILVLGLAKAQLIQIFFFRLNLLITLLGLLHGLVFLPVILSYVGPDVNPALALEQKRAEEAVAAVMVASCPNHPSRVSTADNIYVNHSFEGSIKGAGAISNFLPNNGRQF
As to the kind of experiment: Binding to membranes of HEK-293 cells expressing recombinant human NPC1L1. Details: expressed in transfected cells; host or cells: HEK-293 cells (ATCC), transient, pCR3.1; membranes. The following applies: 0.03% sodium taurocholate and 0.05% digitonin; 1.25 mg protein/ml, 100 nM 1. As for the experimental part:
as §2, §3, §1

With `O=C(O)[C@H]1O[C@@H](Oc2ccc([C@@H]3[C@@H](CC[C@H](O)c4ccc(F)cc4)C(=O)N3c3ccc(F)cc3)c(O)c2)[C@H](O)[C@@H](O)[C@@H]1O` [Compound 7], the inhibitory constant (Ki) in experiment [1] (0.03% sodium taurocholate and 0.05% digitonin, 1.25 mg protein/ml, 100 nM 1, read-out: Rat BBM Ki) was 0.28 µM; at rat NPC1L1, 0.36 µM; in experiment [2], 0.06 µM; on human NPC1L1, 0.21 µM. Also, in experiment [1] (rat brush border membrane vesicles, read-out: RAT IC50 (nM), inhibition of ^3H-EZE-gluc binding), the IC50 is 252 nM.
